Experimental findings from patent publication US10869931B2, “Polyethylene glycol-modified angiogenesis inhibitor HM-1 and application thereof” (NANJING ANJI BIOLOGICAL TECHNOLOGY CO.,LTD, priority 2016, dated 2020) are described below.

Marks after values point to notes of the source that are not given here. Where no end group is shown, it is not given here.

The subject of assay [1] is Esophageal cancer tumor cells. As to the kind of experiment: MTT proliferation inhibition, esophageal cancer cells. In kind it is cell-based, human. As to conditions: 48 h. Also noted: concentration or dose not given beside the values. In outline: (§1)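 Tumour cells plated at 2×10^4 cells/mL, attached overnight, then exposed to dilutions of mPEG-HM-1 for 48 h at 37 °C, 5% CO2. MTT added 4 h, formazan dissolved in DMSO, absorbance 570/630 nm; growth inhibition = 1 − treated/untreated, three independent repeats, mean±SD.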

The test system of assay [2] is Colorectal cancer tumor cells. As to the kind of experiment: MTT proliferation inhibition, colorectal cancer cells. The class given is cell-based, human. The arrangement: concentration or dose not given beside the values. As to conditions: 48 h. In outline:
as §1

The test system of assay [3] is collagen induced arthritis (CIA) in DBA/1 mice. As to the kind of experiment: Collagen-induced mouse arthritis (CIA) model. The following applies: 10 mg/kg subcutaneous from day 30 of modeling, CIA DBA/1 mice. The class given is in vivo.
Assay [4] deals with carrageenan-induced toe swelling in SD rats. As to the kind of experiment: Carrageenan-induced acute toe swelling in rats. In kind it is in vivo, rat. The arrangement: Swelling: unit not given here. The procedure, abridged:
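SD rats dosed with mPEG-HM-1 once daily for 3 days […]; 1 h after last dose, 0.1 mL 1% carrageenan injected subcutaneously into right hind paw. Paw volume measured by liquid displacement at 1, 3, 5 and 7 h; swelling = post- minus pre-inflammation volume (mL).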

The subject of assay [5] is choroidal neovascularization in BN rats. In words: Laser-induced choroidal neovascularization in BN rats (FFA). In kind it is in vivo, rat. The following applies: 25 μg intravitreally once daily for 1 week (Table 53). The procedure, abridged:
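Male BN rats (6–8 weeks) received 8 laser photocoagulation spots per eye around the optic disc (647.1 nm, 350 mW, 50 μm, 0.05 s). Confirmed models, 5 per group, were given saline or PEG-modified HM-1 intravitreally once daily for 1 week. FFA was done 3, 7, 14 and 28 days after dosing.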

Assay [6] deals with retinal neovascular clusters in OIR C57/B16 mice. As to the kind of experiment: Retinal blood vessels in OIR mice. In kind it is in vivo, mouse. In outline: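 C57/B16 pups and mothers were held in 75% oxygen from postnatal day 7 to 12, then returned to room air. On day 13 the PEGylated HM-1 conjugates or saline were given by intravitreal injection; on day 17 retinal vessels were assessed after intracardiac Texas Red-tomato lectin, circulated 5 min.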

For “mPEG-ALD5k-Arg-Gly-Ala-Asp-Arg-Ala-Gly-Gly-Gly-Gly-Arg-Gly-Asp ({mPEG‑ALD 5 kDa}-RGADRAGGGGRGD) [mPEG-ALD5k-HM-1]”, the “rate of growth inhibition” value in assay [1] is listed as 44.63 ± 10.86%; in assay [2], 57.30 ± 15.82%. The same substance showed a Joint swelling in assay [3] of 0.74 ± 0.14 mm. In assay [3], the “Left and right paw swelling” value is recorded as 0.72 ± 0.15 mm. Also, in assay [3] (maximum score 16), the Clinical score was 8.93 ± 1.27. Besides, the Swelling in assay [4] (10 mg/kg once a day for 3 days, 1 h after carrageenan) is 0.22 ± 0.10; in assay [4] (10 mg/kg once a day for 3 days, 3 h after carrageenan), 0.35 ± 0.13; in assay [4] (10 mg/kg once a day for 3 days, 5 h after carrageenan), 0.41 ± 0.15; in assay [4] (10 mg/kg once a day for 3 days, 7 h after carrageenan) it was 0.31 ± 0.12; in assay [4] (20 mg/kg once a day for 3 days, 1 h after carrageenan), 0.21 ± 0.11; in assay [4] (20 mg/kg once a day for 3 days, 3 h after carrageenan), 0.34 ± 0.19. For the same substance, the Swelling is 0.37 ± 0.11 in assay [4] (20 mg/kg once a day for 3 days, 5 h after carrageenan) and 0.35 ± 0.13 in assay [4] (20 mg/kg once a day for 3 days, 7 h after carrageenan). Moreover, the “CNV Incidence rate” value is on record as 55.17% in assay [5] (Day 3 after administration), 52.75% in assay [5] (Day 7), 46.97% in assay [5] (Day 14) and 46.48% in assay [5] (Day 28). Moreover, the “leakage Spots #” value in assay [5] (Day 3 after administration, total spots 290-296 by table) is reported as 160; in assay [5] (Day 7, total spots 182-188 by table), 96; in assay [5] (Day 14, total spots 132-138 by table) it was 62; in assay [5] (Day 28, total spots 67-71 by table) it was 33. This substance also displayed a Neovascular clusters area in assay [6] (25 μg intravitreal injection on day 13, retina evaluated on day 17) of 0.108 ± 0.006 mm^2. This substance also registered an Inhibition rate in assay [6] (25 μg intravitreal, neovascular clusters area vs control, day 17) of 50.98%**.
